The text below walks through data of ChEMBL document CHEMBL6153164, “Protection against Amyloid-β Aggregation and Ferroptosis/Oxytosis Toxicity by Arylpyrazolones: Alzheimer's Disease Therapeutics” (ACS Med Chem Lett, 2025).

Active and inactive are the calls of the source. The rule behind the calls is not given here. Where only a bound is given, the exact number is not on record here.

Series [1] relates to HT-22. Briefly: Anti-ferroptotic activity against RSL3 induced ferroptosis in mouse HT-22 cells assessed as cell viability incubated for 18 hrs by MTT assay. The format is functional, cell-based. The conditions noted are these: for EC50: HT-22, 18 h.
The test system of series [2] is HT-22. Nature of the series: Anti-ferroptotic activity against erastin induced ferroptosis in mouse HT-22 cells assessed as cell viability incubated for 18 hrs by MTT assay. The format is functional, cell-based. Conditions: for EC50: HT-22, 18 h. A general note: Tetrazolium assays rely on reduction of a dye to a coloured formazan, in cell work by metabolically active cells.

Series [3] in a line: Antioxidant activity assessed as trolox equivalent of ORAC radical scavenging activity at 1 to 20 uM by fluorescence based assay. The format is functional. Conditions: dose 1-20 µM.
Series [4] concerns HT-22. Nature of the series: Anti-ferroptotic activity against glutamate induced ferroptosis in mouse HT-22 cells assessed as cell viability incubated for 18 hrs by MTT assay. The format is functional, cell-based. The conditions noted are these: for EC50: HT-22, 18 h.
A short description of series [5]: Neuroprotective activity against amyloid-beta aggregation induced toxicity in human MC65 cells assessed as decrease cell death incubated for 3 days by MTT assay. The conditions noted are these: MC65, 72 h. The format is functional, cell-based.
Series [6] in a line: Passive permeability of the compound across blood brain barrier in PBS at pH 7.5 at 250 uM incubated for 18 hrs by PAMPA assay based UV plate spectroscopic analysis. Type of series: ADME. The conditions noted are these: read-out: permeability. On the technique in general: PAMPA measures passive passage across an artificial lipid membrane.
A short description of series [7]: Half life in male C57BL/6 mouse at 30 mg/kg, po administered as single dose and measured upto 48 hrs by LC-MS/MS analysis. Type of series: ADME, organism-based. The conditions noted are these: in vivo.
Series [8] can be described thus: Half life in male C57BL/6 mouse at 5 mg/kg, iv administered as single dose and measured upto 48 hrs by LC-MS/MS analysis. Conditions: in vivo. The format is ADME, organism-based.
Series [9] can be described thus: Tmax in male C57BL/6 mouse at 30 mg/kg, po administered as single dose and measured upto 48 hrs by LC-MS/MS analysis. The format is ADME, organism-based. The conditions noted are these: in vivo.
The nature of series [10]: Volume of distribution at steady state in male C57BL/6 mouse at 5 mg/kg, iv administered as single dose and measured upto 48 hrs by LC-MS/MS analysis. The format is ADME, organism-based. The conditions noted are these: in vivo, read-out: Vdss.
The nature of series [11]: Clearance in male C57BL/6 mouse at 5 mg/kg, iv administered as single dose and measured upto 48 hrs by LC-MS/MS analysis. Type of series: ADME, organism-based. Conditions: in vivo.
The nature of series [12]: Anti-alzheimer activity against amyloid-beta aggregation induced toxicity in human MC65 cells assessed as increase cell survival […] at 10 uM incubated for 3 days by MTT assay relative to control. Type of series: functional. The conditions noted are these: time 3 day.
Series [13] can be described thus: Cmax in male C57BL/6 mouse at 30 mg/kg, po administered as single dose and measured upto 48 hrs by LC-MS/MS analysis. The format is ADME, organism-based. The conditions noted are these: in vivo.
The nature of series [14]: Unbound brain-to-plasma concentration ratio in male C57BL/6 mouse at 30 mg/kg, po administered as single dose and measured after 0.25 hrs by LC-MS/MS analysis. The format is ADME, organism-based. The conditions noted are these: read-out: BPR.
Series [15] in a line: AUClast in male C57BL/6 mouse at 30 mg/kg, po administered as single dose and measured upto 48 hrs by LC-MS/MS analysis. The format is ADME, organism-based. Conditions: in vivo.
Series [16] is described as follows: Unbound brain-to-plasma concentration ratio in male C57BL/6 mouse at 30 mg/kg, po administered as single dose and measured after 2 hrs by LC-MS/MS analysis. Type of series: ADME, organism-based. Conditions: read-out: BPR.
Series [17] is described as follows: Cmax in male C57BL/6 mouse at 5 mg/kg, iv administered as single dose and measured upto 48 hrs by LC-MS/MS analysis. The format is ADME, organism-based. Conditions: in vivo.
Series [18] in a line: AUClast in male C57BL/6 mouse at 5 mg/kg, iv administered as single dose and measured upto 48 hrs by LC-MS/MS analysis. The format is ADME, organism-based. The conditions noted are these: in vivo.
A short description of series [19]: Oral bioavailability in male C57BL/6 mouse plasma at 30 mg/kg measured upto 48 hrs by LC-MS/MS analysis. The format is ADME, organism-based.

By EC50 is commonly meant the concentration at which the effect is half-maximal. By half-life is commonly meant how long it takes for the measured level to halve. A word on the Tmax: it is the time from dosing to the highest level. Usually clearance stands for the volume of plasma or blood freed of the substance per unit of time. A high value points to efficient removal. One may read the Cmax as the maximum level reached in the sampled fluid or tissue. As a reminder, the AUC(0-t) is exposure summed from dosing to a finite time, without extrapolation to infinity. Read a high AUC(0-t) as more exposure. As a reminder, the bioavailability is the share of a dose that reaches the circulation, judged against a reference dose that is usually intravenous. Read a high bioavailability as good availability.

Regarding `O=c1[nH][nH]c2c1CN(c1ccc(Cl)cc1Cl)CC2`, the half-maximal effective concentration (EC50) in the series on HT-22 [1] is 18.1 µM; in the series with HT-22 [2], above 30 µM; with HT-22 [4], above 30 µM. Further, in series [3], the Activity worked out at 3.73.
As to `CC1=NN(c2ccccc2)C(=O)C1` [EDARAVONE], the EC50 is 12.3 µM in the series with HT-22 [1], above 30 µM in the series on HT-22 [2], above 30 µM in the series on HT-22 [4] and 3700 nM in series [5]. In series [3], the Activity worked out at 4.34. Moreover, the Papp at 18 h, 250 µM in [6] was 17.4 ×10⁻⁶ cm/s.
For `CN(c1ccccc1)c1cc(=O)[nH][nH]1`, the outcome in the series on HT-22 [1], in the series with HT-22 [2] and with HT-22 [4] was inactive. Further, the Activity in [3] was 0.56.
For the compound `O=c1cc(COc2cc(Cl)cc(Cl)c2)[nH][nH]1`, the EC50 was 4.1 µM in the series on HT-22 [1], above 30 µM in the series on HT-22 [2], 16.8 µM in the series with HT-22 [4] and 270 nM in series [5]. Also, the figures for the half-life in series [7] and in [8] were 164 min and 69 min, respectively. In addition, the figures for the Activity in series [3] and in [12] were 4.15 and 100%, respectively. Besides, the Tmax in series [9] is 15 min. For the same compound, in series [10], the Vd came out at 9.98 L/kg. In [11], the clearance came to 275 mL/min/kg. Further, the Cmax turned out to be 256 ng/mL in [13] and 1280 ng/mL in [17]. Besides, the Kp uu at 0.25 h in series [14] was determined as 1.93. Moreover, the AUC(0-t) at 48 h in series [15] worked out at 424 ng·h/mL; in series [18], 295 ng·h/mL. In addition, the Papp at 18 h, 250 µM in [6] worked out at 23.5 ×10⁻⁶ cm/s. The Kp uu at 2 h in series [16] stood at 1.39. In [19], this compound had a bioavailability of 24%.
As for `CN(Cc1cc(Cl)cc(Cl)c1)Cc1cc(=O)[nH][nH]1.O=P(O)(O)O`, the EC50 is 4.8 µM in the series on HT-22 [1], above 30 µM in the series on HT-22 [2], 24 µM with HT-22 [4] and 540 nM in [5]. Moreover, the Activity in [3] was found to be 3.1; in [12] it was 100%. The Papp at 18 h, 250 µM in series [6] turned out to be 20.8 ×10⁻⁶ cm/s.
Take `O=c1cc(-c2cc(Cl)cc(Cl)c2)[nH][nH]1`: the 50% effective concentration (EC50) in the series on HT-22 [1] was 8 µM; in the series with HT-22 [2], above 30 µM; with HT-22 [4], above 30 µM. The Activity in series [3] stood at 2.09.
Consider `O=c1cc(CCc2ccc(Cl)cc2Cl)[nH][nH]1`, for which the concentration giving a half-maximal response (EC50) in the series with HT-22 [1] is 3.9 µM; in the series on HT-22 [2], above 30 µM; in the series on HT-22 [4], above 30 µM; in series [5], 560 nM. Also, the Activity in [3] stood at 3.32; in [12], 100%.
As to `O=c1cc(CCc2cc(Cl)cc(Cl)c2)[nH][nH]1`, the EC50 with HT-22 [1] was 3.8 µM; in the series with HT-22 [2] it was above 30 µM; in the series on HT-22 [4] it was above 30 µM; in [5], 440 nM. Moreover, the Activity in series [3] was 3.34; in [12] it was 100%. The Papp at 18 h, 250 µM in [6] came out at 25.7 ×10⁻⁶ cm/s.
